Results as given in US11638709B2, “Rucaparib, Talazoparib, Veliparib, Olaparib and AZD 2461 for treating impaired skin wound healing” (AKRIBES BIOMEDICAL GMBH, priority 2017, dated 2023).

Experiments:
[1] = tested on: primary human dermal fibroblasts (HDF); experiment: Primary human dermal fibroblast (HDF) proliferation assay (2D) with or without wound exudate; assay type: cell-based; settings: for fibroblast proliferation in the absence of WE: FIG. 11, 2D fibroblast culture without WE (control); for HDF proliferation with wound exudate #78, plus PDGF / HDF proliferation with wound exudate #78: FIG. 15; for HDF proliferation with wound exudate #78, plus PDGF: compound + PDGF 20 ng/ml in medium + WE #78; for HDF proliferation with wound exudate #78: compound in medium + WE #78; for wound exudate-induced inhibition of fibroblast proliferation: FIG. 20, with wound exudate; for effect on PDGF-induced induction of proliferation in the absence of WE: with PDGF
Experimental: (§1) Primary human dermal fibroblasts (HDF) were purchased from CELLnTEC, Bern. They were routinely grown in Dulbecco's modified Eagle's medium (DMEM) containing 10% FCS, 2 mM glutamine, and 100 U/ml penicillin/100 μg/ml streptomycin. Media, antibiotics, and glutamine were bought from Lonza. The cells were used at passage 5-15. Cells were trypsinized and seeded at 5000 cells/well in 200 μl into the inner wells of 96-well plates. The outer wells were loaded with sterile water. The cells were allowed to adhere overnight and then incubated for 72 hours at 37° C. under the following conditions: graded compound concentrations or 20 ng/ml PDGF-BB (Tonbo Biosciences) in the absence or presence of different dilutions of sterile-filtered WE in medium. For control samples, 200 μl medium was added instead of specific stimuli. Alternatively, the cells were seeded into 384-well plates at 2500 cells/well directly together with test compounds or growth factors and WE or medium in a total volume of […].
(§2) At the end of the 72-hour incubation period, supernatants were removed for the determination of IL-1ß, and the cells were fixed with 4% paraformaldehyde (Morphisto) for 15 minutes at room temperature and washed 3 times with PBS. A control plate was fixed after the overnight adherence of the cells (day 1) to determine the starting cell number.
Total cellular protein was determined as a measure of cell number by staining the fixed cells with sulforhodamine B (SRB, Sigma). A 0.4% SRB solution in 1% acetic acid was added to the wells for 30 minutes. The wells were then washed with 1% acetic acid until the wash solution remained colorless. […] The average absorbance of the sample representing the day 1 starting cell number (for 96-well plates) was subtracted from the absorbance values of the WE-treated cells.
All experiments were carried out in triplicate for each sample and concentration, and means±standard deviation (SD) were used for the evaluation of the experiment. Results are expressed as percentage of control values for unstimulated cells.
(§3) Low molecular weight compounds (see list in Table 1) were dissolved in DMSO (Bioreagent for cell culture, Sigma) at 10 mM or 100 mM and diluted at least 1:1000 in medium for cellular assays (final DMSO concentration ≤0.1%).
(§4) Cells were incubated with compounds for 72 hours in proliferation assays and up to 8 days for FDM assay (refreshed after 4 days). When compounds were tested for their effect on WE stimulation, the incubation of cells with compounds was started and ended simultaneously with WE-incubation.

[2] = tested on: primary human dermal fibroblasts (HDF); experiment: Fibroblast-derived matrix (FDM) formation assay (3D) with wound exudate; assay type: cell-based; settings: for 3D fibroblast culture (FDM formation), effect of PARP inhibitors: FIG. 7, WE from patient #78; for 3D fibroblast-derived matrix formation assay, activity: FIGS. 9 and 10
Experimental: HDF cells were seeded at 5000 cells/well on day −3 into 96-well tissue culture plates (1250 cells/well for 384-well plates), which had been pre-coated for 1 hour at 37° C. with 0.2% gelatin solution (Sigma). When the cells reached confluence (=day 0), a matrix promoting supplement (vitamin C: 2-phospho-L-ascorbic acid trisodium salt, 100 μg/ml; Sigma) was added together with test samples containing PDGF-BB, TGF-ß1 or graded concentrations of compounds −/+WE as described for the HDF proliferation assay. After 4 days, medium was replaced by fresh vitamin C—and stimulus—as well as compound-containing medium, maintaining the conditions initiated on day 0. TGF-ß1 and PDGF-BB were included as positive controls to promote FDM formation and cell growth, respectively. After a total incubation time of 8 days, FDM production was measured in fixed cultures via SRB staining and evaluated as described above. In some cases, the experiment was stopped and evaluated already on day 4.
as §3, §4

[3] = tested on: IL-1ß secretion by primary human dermal fibroblasts; experiment: IL-1ß secretion in the HDF proliferation assay with wound exudate (ELISA); assay type: cell-based; settings: FIG. 20
Experimental: as §2
IL-1ß levels were determined with a commercial ELISA kit. The amount of IL-1ß contained in the wound exudate added to the cells was subtracted from the total IL-ß in the supernatants in order to determine the cytokine secreted by the cells.

PARP1 = PARP1 (Homo sapiens, UniProt P09874); settings: cited from earlier work
Sequence of PARP1 (P09874 whole entry, species assumed): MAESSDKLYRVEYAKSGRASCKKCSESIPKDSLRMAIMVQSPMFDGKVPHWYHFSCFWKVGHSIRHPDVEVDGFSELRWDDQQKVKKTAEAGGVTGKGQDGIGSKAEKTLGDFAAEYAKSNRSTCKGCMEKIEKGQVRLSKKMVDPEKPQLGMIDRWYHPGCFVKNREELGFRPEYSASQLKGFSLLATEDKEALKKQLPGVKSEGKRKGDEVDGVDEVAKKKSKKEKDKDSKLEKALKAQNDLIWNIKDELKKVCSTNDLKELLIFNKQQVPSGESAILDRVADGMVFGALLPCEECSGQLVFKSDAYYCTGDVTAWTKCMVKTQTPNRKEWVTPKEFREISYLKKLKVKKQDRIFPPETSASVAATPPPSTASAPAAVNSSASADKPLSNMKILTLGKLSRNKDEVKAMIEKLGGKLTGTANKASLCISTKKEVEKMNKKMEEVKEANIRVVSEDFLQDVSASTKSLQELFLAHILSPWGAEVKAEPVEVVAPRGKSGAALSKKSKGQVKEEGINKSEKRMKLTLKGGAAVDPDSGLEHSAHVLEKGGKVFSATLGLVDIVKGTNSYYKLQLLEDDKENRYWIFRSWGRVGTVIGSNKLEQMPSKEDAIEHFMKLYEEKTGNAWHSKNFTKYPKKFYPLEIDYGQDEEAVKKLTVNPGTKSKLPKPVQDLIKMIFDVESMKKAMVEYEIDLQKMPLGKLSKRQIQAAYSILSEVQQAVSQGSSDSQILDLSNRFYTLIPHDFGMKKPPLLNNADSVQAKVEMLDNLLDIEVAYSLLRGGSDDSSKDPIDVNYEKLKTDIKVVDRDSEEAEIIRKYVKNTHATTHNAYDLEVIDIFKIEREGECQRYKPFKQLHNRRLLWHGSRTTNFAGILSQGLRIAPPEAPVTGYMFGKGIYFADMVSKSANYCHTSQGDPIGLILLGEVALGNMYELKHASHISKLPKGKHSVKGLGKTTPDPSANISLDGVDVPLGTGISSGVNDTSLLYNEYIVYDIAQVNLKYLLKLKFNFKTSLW

PARP = settings: cited from earlier work
[4] = tested on: alpha-smooth muscle actin (α-SMA) in human dermal fibroblasts; experiment: Immunolocalization of alpha-smooth muscle actin in 2D HDF culture; assay type: cell-based; settings: FIG. 16; absence of wound exudate; TGF-ß 20 ng/ml
Experimental: as §1
After fixation with paraformaldehyde, the cells were incubated for 1 hour at room temperature with a monoclonal mouse-anti-human antibody against alpha-smooth muscle actin (α-SMA) from e-Bioscience, washed 3 times with PBS and developed with an Alexa Fluor-labelled donkey-anti-mouse IgG (Molecular Probes). […]

O=C(c1cc(Cc2n[nH]c(=O)c3ccccc23)ccc1F)N1CCN(C(=O)C2CC2)CC1 [Olaparib]
2D fibroblast culture (HDF proliferation), effect of PARP inhibitors ([1]; FIG. 8, WE from patient #78): strong and consistent positive effect
fibroblast proliferation in the absence of WE [1]: either no effect on fibroblast proliferation in the absence of wound exudate, or only a marginal effect
HDF proliferation with wound exudate #78, plus PDGF [1]: even further enhanced by the addition of PDGF
HDF proliferation with wound exudate #78 [1]: dose-dependent increase of HDF proliferation
wound exudate-induced inhibition of fibroblast proliferation [1]: enhanced cell proliferation
effect on PDGF-induced induction of proliferation in the absence of WE ([1]; no WE): either had no effect on PDGF-induced induction of proliferation or showed inhibition of the PDGF effect
3D fibroblast culture (FDM formation), effect of PARP inhibitors [2]: strong and consistent positive effect
wound exudate-induced IL-1ß secretion [3]: reducing IL-1ß secretion

CN(C)Cc1ccc(-c2nc3cccc4c3n2CCNC4=O)cc1 [AG-14351]
2D fibroblast culture (HDF proliferation), effect of PARP inhibitors ([1]; FIG. 8, WE from patient #78): only a very weak effect at a concentration of 10 μM
wound exudate-induced inhibition of fibroblast proliferation [1]: enhanced cell proliferation
3D fibroblast culture (FDM formation), effect of PARP inhibitors [2]: only a very weak effect at a concentration of 10 μM
wound exudate-induced IL-1ß secretion [3]: reducing IL-1ß secretion
inhibits PARP1 with an 1050 (PARP1): low nM range

NC(=O)c1cccc2cn(-c3ccc([C@@H]4CCCNC4)cc3)nc12 [niraparib]
2D fibroblast culture (HDF proliferation), effect of PARP inhibitors ([1]; FIG. 8, WE from patient #78): does not show any activity
wound exudate-induced inhibition of fibroblast proliferation [1]: did not show any of these effects
3D fibroblast culture (FDM formation), effect of PARP inhibitors [2]: does not show any activity
wound exudate-induced IL-1ß secretion [3]: did not show any of these effects
inhibits PARP with an 1050 (PARP): low nM range

Oc1cccc2c(O)nccc12 [1,5-IQD, 1,5-Isoquinolinediol]
2D fibroblast culture (HDF proliferation), effect of PARP inhibitors ([1]; FIG. 9, WE from patient #43): either inactive or exhibit a very weak activity
2D fibroblast culture (HDF proliferation), effect of PARP inhibitors ([1]; FIG. 10, WE from patient #78): either inactive or exhibit a very weak activity
3D fibroblast-derived matrix formation assay, activity [2]: either inactive or only weakly active

COC1CCN(C(=O)c2cc(Cc3n[nH]c(=O)c4ccccc34)ccc2F)CC1 [AZD-2461]
2D fibroblast culture (HDF proliferation), effect of PARP inhibitors ([1]; FIG. 8, WE from patient #78): strong and consistent positive effect
fibroblast proliferation in the absence of WE [1]: either no effect on fibroblast proliferation in the absence of wound exudate, or only a marginal effect
wound exudate-induced inhibition of fibroblast proliferation [1]: enhanced cell proliferation
3D fibroblast culture (FDM formation), effect of PARP inhibitors [2]: strong and consistent positive effect
wound exudate-induced IL-1ß secretion [3]: reducing IL-1ß secretion

CN(C)CC(=O)Nc1ccc2[nH]c(=O)c3ccccc3c2c1.Cl [PJ-34]
2D fibroblast culture (HDF proliferation), effect of PARP inhibitors ([1]; FIG. 9, WE from patient #43): either inactive or exhibit a very weak activity
2D fibroblast culture (HDF proliferation), effect of PARP inhibitors ([1]; FIG. 10, WE from patient #78): either inactive or exhibit a very weak activity
2D fibroblast culture, PARP inhibitor effect ± dexamethasone ± Vit. C ([1]; FIG. 12, WE from patient #78): only a weak effect
2D fibroblast culture, PARP inhibitor effect ± dexamethasone ± Vit. C ([1]; FIG. 13, WE from patient #43): only a weak effect
3D fibroblast-derived matrix formation assay, activity [2]: either inactive or only weakly active

TGF-ß: Transforming growth factor beta
staining for myofibroblast marker alpha-smooth muscle actin (α-SMA) [4]: increases the staining for the myofibroblast marker alpha-smooth muscle actin (α-SMA)

NC(=O)c1cccc(N)c1 [3-AB, 3-Aminobenzamide]
2D fibroblast culture (HDF proliferation), effect of PARP inhibitors ([1]; FIG. 9, WE from patient #43): either inactive or exhibit a very weak activity
2D fibroblast culture (HDF proliferation), effect of PARP inhibitors ([1]; FIG. 10, WE from patient #78): either inactive or exhibit a very weak activity
wound exudate-induced inhibition of fibroblast proliferation [1]: did not show any of these effects
3D fibroblast-derived matrix formation assay, activity [2]: either inactive or only weakly active
wound exudate-induced IL-1ß secretion [3]: did not show any of these effects

2-phospho-L-ascorbic acid trisodium salt [vitamin C]
2D fibroblast culture, enhancement of PARP inhibitor compound effects by co-agent ([1]; FIG. 12, WE from patient #78, dexamethasone 3 nM, vitamin C 100 μg/ml): synergistically enhance the PARP inhibitor compound effects
2D fibroblast culture, enhancement of PARP inhibitor compound effects by co-agent ([1]; FIG. 13, WE from patient #43): synergistically enhance the PARP inhibitor compound effects

CNCc1ccc(-c2[nH]c3cc(F)cc4c3c2CCNC4=O)cc1 [Rucaparib]
2D fibroblast culture (HDF proliferation), effect of PARP inhibitors ([1]; FIG. 8, WE from patient #78): strong and consistent positive effect
2D fibroblast culture (HDF proliferation), effect of PARP inhibitors ([1]; FIG. 9, WE from patient #43): strong and consistent positive effect
2D fibroblast culture (HDF proliferation), effect of PARP inhibitors ([1]; FIG. 10, WE from patient #78): strong and consistent positive effect
fibroblast proliferation in the absence of WE [1]: either no effect on fibroblast proliferation in the absence of wound exudate, or only a marginal effect
HDF proliferation with wound exudate #78, plus PDGF [1]: even further enhanced by the addition of PDGF
HDF proliferation with wound exudate #78 [1]: dose-dependent increase of HDF proliferation
wound exudate-induced inhibition of fibroblast proliferation [1]: enhanced cell proliferation
effect on PDGF-induced induction of proliferation in the absence of WE ([1]; no WE): either had no effect on PDGF-induced induction of proliferation or showed inhibition of the PDGF effect
3D fibroblast culture (FDM formation), effect of PARP inhibitors [2]: strong and consistent positive effect
wound exudate-induced IL-1ß secretion [3]: reducing IL-1ß secretion

B1: PDGF: Platelet-derived growth factor, protein growth factor (Tonbo Biosciences) (protein, UniProt P01127 82-190, looked up)
Platelet-derived growth …: SLGSLTIAEPAMIAECKTRTEVFEISRRLIDRTNANFLVWPPCVEVQRCSGCCNNRNVQCRPTQVQLRPVQVRKIEIVRKKPIFKKATVTLEDHLACKCETVAAARPVT
modifications: PDGF-BB homodimer
HDF proliferation in the presence of WE #78 ([1]; FIG. 14, WE #78, veliparib 10 μM, talazoparib 1 μM, PDGF 20 ng/ml): has no effect
HDF proliferation in the absence of WE ([1]; FIG. 14, no WE, veliparib 10 μM, talazoparib 1 μM, PDGF 20 ng/ml): induces HDF proliferation
HDF proliferation with wound exudate #78 [1]: inactive
